{"source": "patent US20250188151A1", "about": "“C-JUN ANTAGONIST PEPTIDES” (The University of Bath, priority 2022, published 2025)", "key": {"[1]": {"experiment": "CD spectra and thermal denaturation of peptide-only samples (helicity, homodimer Tm)", "conditions": "for change in fraction helicity from lactamisation: cyclised vs its linear form", "procedure": "Circular Dichroism (CD): An Applied Photophysics Chirascan was used for CD measurements, with a 200 μL sample in a 1 mm path length CD cell. Protein/DNA samples were suspended in 150 mM potassium phosphate, 150 mM potassium fluoride and 5 mM TCEP at pH 7.4 and were equilibrated for 30 minutes before measurement. […] These scans were averaged and converted to molar residue ellipticities (MRE). Thermal denaturation experiments were performed by measuring the ellipticity at 222 nm over a 1 to 90° C. gradient at 1° C. increments. Post-melt scans at 20° C. confirmed the transitions were reversible as they overlaid within 10% of the pre-melt scan.\nCircular Dichroism (CD): An Applied Photophysics Chirascan was used for CD measurements, with a 200 μL sample in a 1 mm path length CD cell. Protein/DNA samples were suspended in 150 mM potassium phosphate, 150 mM potassium fluoride and 5 mM TCEP at pH 7.4 and were equilibrated for 30minutes before measurement. […] Thermal denaturation experiments were performed by measuring the ellipticity at 222 nm over a 1 to 90° C. gradient at 1° C. increments. Post-melt scans at 20° C. confirmed the transitions were reversible as they overlaid within 10% of the pre-melt scan.\nPeptide helicity was determined by quantifying the CD signal at 222 nm of peptide only samples. Thermal denaturation experiments were then used to determine the Tm of peptide-c-Jun heterodimers, which was used as an approximate measure of target engagement. […] The same 60 amino acid c-Jun bZIP construct was used for all experiments, regardless of antagonist peptide length."}, "cJun/TRE DNA interaction": {"biological_target": "T1, cJun/TRE DNA interaction (Homo sapiens, UniProt P05412, S292Y)", "T1 construct": "The same 60 amino acid c-Jun bZIP construct was used for all experiments; His-SUMO (N, cleaved yes); made in house; host or cells: E. coli", "experiment": "CD cJun/TRE DNA antagonism (shift of TRE DNA peak at ~281 nm, Hill fit)", "format": "biochemical", "from_the_text": "Briefly, in TBS the coding region for the essential gene dihydrofolate reductase (DHFR) is mutated to incorporate TRE sites so that introduction of c-Jun to this gene inside E. coli produces a transcriptional block that abrogates cell proliferation. The TRE site-bound c-Jun molecules sterically prevent RNA polymerase transcribing the essential gene and this can only be restored upon introduction of an effective c-Jun/TRE antagonist. Consequently, the survival of a particular cell is controlled by the ability of a peptide library member to remove the c-Jun transcriptional block and therefore to restore DHFR activity. TBS thus facilitates the identification of therapeutically valuable sequences. Further details for the TBS assay are provided in WO2020128015, which is incorporated herein by reference in its entirety. […] The TRE-DNA construct produces a positive CD peak at ˜281 nm, which decreases in intensity upon c-Jun binding. […] This method allows for the calculation of an IC50 value by fitting the titration data to a Hill equation. In some embodiments, the c-Jun antagonist is able to inhibit the DNA-binding activity of c-Jun within 10-fold of the ability of HingeW to inhibit the DNA-binding activity of c-Jun (e.g. the c-Jun antagonist has a reduced ability to inhibit the DNA-binding activity of c-Jun that is within 10-fold of that determined for HingeW). In some embodiments, the c-Jun antagonist is able to inhibit the DNA-binding activity of c-Jun within 9-fold, preferably within 8-fold, more preferably within 7-fold, even more preferably within 6-fold, yet more preferably within 5-fold of the ability of HingeW to inhibit the DNA-binding activity of c-Jun. The ability of the c-Jun antagonist and HingeW to inhibit the DNA-binding activity may be measured using the TBS assay (e.g. by quantifying the number of colonies) or by determining the IC50 using a circular dichroism assay described herein. Optionally, the c-Jun antagonist may have this activity when cross-linked. Methods for cross-linking peptides are described in more detail below.\nTherefore, the acidic domain was the initial focus for optimisation. 1 was iteratively truncated (2-6) to investigate the effect on c-Jun binding and c-Jun/TRE DNA antagonism. […] Thermal denaturation experiments were then used to determine the Tm of peptide-c-Jun heterodimers, which was used as an approximate measure of target engagement. CD was also used to investigate the ability of the functional activity of peptides in antagonising the c-Jun/TRE DNA interaction. The TRE-DNA construct used produces a positive CD peak at ˜281 nm (no c-Jun absorbance at this wavelength allows for direct measurement of DNA upon binding) which decreases in intensity upon c-Jun binding. […] This allowed for the calculation of an IC50 value by fitting the titration data to a Hill equation. […] The same 60 amino acid c-Jun bZIP construct was used for all experiments, regardless of antagonist peptide length."}, "cJun bZIP": {"biological_target": "cJun bZIP (Homo sapiens, UniProt P05412, S292Y)", "experiment": "CD spectra and thermal denaturation of peptide/cJun heterodimers", "conditions": "peptide (5 μM)/c-Jun (5 μM) heterodimer; Table 6"}, "cJun": {"biological_target": "cJun (Homo sapiens, UniProt P05412, S292Y)", "experiment": "Isothermal titration calorimetry, Example 2 (PEAQ-ITC)", "format": "binding", "parameters": "The same 60 amino acid c-Jun bZIP construct was used for all experiments; His-SUMO (N, cleaved yes); made in house; host or cells: E. coli", "conditions": "ITC; for Stoichiometry, n: c-Jun-peptide interaction", "method": "2 μL injections of antagonist peptide at 25-200 μM were injected into the cell containing cJun at 2.5-20 μM. Software was used to record and analyse the heat change upon addition. Control experiments involved the injection of the antagonist peptide sample into the cell containing ITC buffer alone to determine the heat of dilution which was subtracted. The resulting binding data were fit to a one site binding model to extract the enthalpy change of binding (ΔH) and the equilibrium binding constant (KD), from which the free energy change of binding (ΔG) and the entropy change of binding (ΔS) was calculated (Wiseman et al., 1989). Thermodynamic parameters are presented as an average of two independent experiments with errors given as one standard deviation."}}, "note": "Bridge positions count the residues as written; N and C are the ends. Peptide text beside a SMILES is read from it."}
{"molecule": "RIKAERKRMRNRIAASKCRKRKLERIARLEEKVKTLKAQNYELASTANMLREQVAQLGAP [cJun]", "values": [{"measurement": "Fraction helicity at 20° C. (CD)", "setting": "[1]; peptide alone", "value": 14.0, "unit": "%"}, {"measurement": "Tm (° C.) (CD)", "setting": "[1]; peptide alone (homodimer)", "value": 39.8, "unit": "°C"}]}
{"molecule": "CC[C@H](C)[C@H](NC(=O)[C@H](CCC(=O)O)NC(=O)[C@H](CCCCN)NC(=O)[C@H](CCCNC(=N)N)NC(=O)[C@H](CC(C)C)NC(=O)[C@H](C)NC(=O)[C@H](Cc1ccc(O)cc1)NC(=O)[C@H](CC(N)=O)NC(=O)[C@H](CCCNC(=N)N)NC(=O)[C@H](CCC(=O)O)NC(=O)[C@H](CCC(=O)O)NC(=O)[C@H](CC(C)C)NC(=O)[C@H](CCC(N)=O)NC(=O)[C@H](CCC(=O)O)NC(=O)[C@@H](NC(=O)[C@H](CCC(=O)O)NC(=O)[C@@H]1CC(=O)NCCCC[C@H](NC(=O)[C@H](CCC(=O)O)NC(=O)[C@H](CCC(=O)O)NC(=O)[C@@H](NC(=O)[C@@H](NC(=O)[C@H](CC(C)C)NC(=O)[C@H](CCC(=O)O)NC(=O)[C@H](CCC(=O)O)NC(=O)[C@H](C)NC(=O)[C@H](CCC(=O)O)NC(C)=O)C(C)C)C(C)C)C(=O)N[C@@H](C(C)C)C(=O)N[C@@H](CC(C)C)C(=O)N[C@@H](CCC(=O)O)C(=O)N1)[C@@H](C)CC)C(=O)N[C@@H](CCC(=O)O)C(=O)N[C@@H](CC(=O)O)C(=O)N[C@@H](CC(C)C)C(=O)N[C@@H](CCC(N)=O)C(=O)N[C@@H](CCCCN)C(=O)N[C@@H](CCC(N)=O)C(N)=O", "note": "[Peptide 17] (Ac-EAEELVVEEKVLEDEIEQLEERNYALRKEIEDLQKQ-NH2; lactam 10-14)", "values": [{"measurement": "effect of lactamisation on antagonism", "setting": "cJun/TRE DNA interaction; P=0.24", "value": "did not lead to a significant increase in antagonism"}, {"measurement": "Tm (° C.)", "setting": "cJun bZIP", "value": "64.0 ± 0.8", "unit": "°C"}, {"measurement": "change in fraction helicity from lactamisation", "setting": "[1]", "value": "~5", "unit": "%"}, {"measurement": "ΔG", "setting": "cJun", "value": "-9.766 ± 0.0669", "unit": "kcal/mol"}, {"measurement": "ΔH", "setting": "cJun", "value": "-14.1 ± 0.402", "unit": "kcal/mol"}, {"measurement": "−TΔS", "setting": "cJun", "value": "4.336 ± 0.406", "unit": "kcal/mol"}, {"measurement": "Stoichiometry, n", "setting": "cJun", "value": "1.20 ± 0.02"}]}
{"molecule": "CC[C@H](C)[C@H](NC(=O)[C@H](CCC(=O)O)NC(=O)[C@H](CCCCN)NC(=O)[C@H](CCCNC(=N)N)NC(=O)[C@H](CC(C)C)NC(=O)[C@H](C)NC(=O)[C@H](Cc1ccc(O)cc1)NC(=O)[C@H](CC(N)=O)NC(=O)[C@H](CCCNC(=N)N)NC(=O)[C@H](CCC(=O)O)NC(=O)[C@H](CCC(=O)O)NC(=O)[C@H](CC(C)C)NC(=O)[C@H](CCC(N)=O)NC(=O)[C@H](CCC(=O)O)NC(=O)[C@@H](NC(=O)[C@H](CCC(=O)O)NC(=O)[C@H](CCC(=O)O)NC(=O)[C@H](CCC(=O)O)NC(=O)[C@H](CC(C)C)NC(=O)[C@@H](NC(=O)[C@H](CC(=O)O)NC(=O)[C@H](CCC(=O)O)NC(=O)[C@H](CCC(=O)O)NC(=O)[C@@H](NC(=O)[C@@H](NC(=O)[C@H](CC(C)C)NC(C)=O)C(C)C)C(C)C)C(C)C)[C@@H](C)CC)C(=O)N[C@@H](CCC(=O)O)C(=O)N[C@@H](CC(=O)O)C(=O)N[C@@H](CC(C)C)C(=O)N[C@@H](CCC(N)=O)C(=O)N[C@H]1CCCCNC(=O)C[C@@H](C(=O)N[C@@H](CC(C)C)C(N)=O)NC(=O)[C@H](CCC(=O)O)NC(=O)[C@H](CC(C)C)NC(=O)[C@H](CCC(N)=O)NC1=O", "note": "[Peptide 10] (Ac-LVVEEDVLEEEIEQLEERNYALRKEIEDLQKQLEDL-NH2; lactam 31-35)", "values": [{"measurement": "fold increase in antagonism relative to the linear counterpart 5", "setting": "cJun/TRE DNA interaction; ratio of CD IC50", "value": 1.9, "unit": "fold"}, {"measurement": "Tm (° C.)", "setting": "cJun bZIP", "value": "68.3 ± 0.9", "unit": "°C"}]}
{"molecule": "Ac-EAEELVVEEDVLEEEIEQLEERNYALRKEIEDL-NH2 [Peptide 25]", "values": [{"measurement": "fold reduction in antagonism relative to 4", "setting": "cJun/TRE DNA interaction; ratio of CD IC50", "value": 26.7, "unit": "fold"}, {"measurement": "fold reduction in antagonism relative to 11", "setting": "cJun/TRE DNA interaction; ratio of CD IC50", "value": 14.8, "unit": "fold"}, {"measurement": "Tm (° C.)", "setting": "cJun bZIP", "value": "44.8 ± 1.2", "unit": "°C"}]}
{"molecule": "CC[C@H](C)[C@H](NC(=O)[C@H](CCC(=O)O)NC(=O)[C@H](CCCCN)NC(=O)[C@H](CCCNC(=N)N)NC(=O)[C@H](CC(C)C)NC(=O)[C@H](C)NC(=O)[C@H](Cc1ccc(O)cc1)NC(=O)[C@H](CC(N)=O)NC(=O)[C@H](CCCNC(=N)N)NC(=O)[C@H](CCC(=O)O)NC(=O)[C@H](CCC(=O)O)NC(=O)[C@H](CC(C)C)NC(=O)[C@H](CCC(N)=O)NC(=O)[C@H](CCC(=O)O)NC(=O)[C@@H](NC(=O)[C@H](CCC(=O)O)NC(=O)[C@H](CCC(=O)O)NC(=O)[C@H](CCC(=O)O)NC(=O)[C@H](CC(C)C)NC(=O)[C@@H](NC(=O)[C@H](CC(=O)O)NC(=O)[C@H](CCC(=O)O)NC(=O)[C@H](CCC(=O)O)NC(=O)[C@@H](NC(=O)[C@@H](NC(=O)[C@H](CC(C)C)NC(=O)[C@@H]1CC(=O)NCCCC[C@H](NC(C)=O)C(=O)N[C@@H](CCC(=O)O)C(=O)N[C@@H](C)C(=O)N[C@@H](CCC(=O)O)C(=O)N1)C(C)C)C(C)C)C(C)C)[C@@H](C)CC)C(=O)N[C@@H](CCCCN)C(=O)N[C@@H](CC(=O)O)C(=O)N[C@@H](CC(C)C)C(=O)N[C@@H](CCC(N)=O)C(=O)N[C@@H](CC(=O)O)C(=O)N[C@@H](CCC(N)=O)C(N)=O", "note": "[Peptide 13] (Ac-KEAEDLVVEEDVLEEEIEQLEERNYALRKEIKDLQDQ-NH2; lactam 1-5)", "values": [{"measurement": "Tm (° C.)", "setting": "cJun bZIP", "value": "58.5 ± 1.0", "unit": "°C"}, {"measurement": "change in fraction helicity from lactamisation", "setting": "[1]", "value": "~1", "unit": "%"}]}
{"molecule": "Ac-EAEELVVEEDVLEEEIEQLEERNYALRKEIEDLQKQ-NH2 [Peptide 11]", "values": [{"measurement": "fold reduction in antagonism relative to 4", "setting": "cJun/TRE DNA interaction; ratio of CD IC50", "value": 1.8, "unit": "fold"}, {"measurement": "Tm (° C.)", "setting": "cJun bZIP", "value": "57.1 ± 0.9", "unit": "°C"}, {"measurement": "ΔG", "setting": "cJun", "value": "-8.15 ± 0.098", "unit": "kcal/mol"}, {"measurement": "ΔH", "setting": "cJun", "value": "-5.989 ± 0.813", "unit": "kcal/mol"}, {"measurement": "−TΔS", "setting": "cJun", "value": "-2.14 ± 0.817", "unit": "kcal/mol"}, {"measurement": "Stoichiometry, n", "setting": "cJun", "value": "0.95 ± 0.09"}]}
{"molecule": "Ac-LVVEEDVLEEEIEQLEERNYALRKEIEDLQKQLEKL-NH2 [Peptide 5]", "values": [{"measurement": "fold better antagonism than 6", "setting": "cJun/TRE DNA interaction; ratio of CD IC50", "value": 1.7, "unit": "fold"}, {"measurement": "fold reduction in antagonism relative to 3", "setting": "cJun/TRE DNA interaction; ratio of CD IC50", "value": 2.3, "unit": "fold"}, {"measurement": "fold reduction in antagonism relative to 4", "setting": "cJun/TRE DNA interaction; ratio of CD IC50", "value": 1.7, "unit": "fold"}, {"measurement": "fold reduction in cJun/TRE antagonism relative to 1", "setting": "cJun/TRE DNA interaction; ratio of CD IC50", "value": 5.8, "unit": "fold"}, {"measurement": "Tm (° C.)", "setting": "cJun bZIP", "value": "62.8 ± 1.0", "unit": "°C"}]}
